Patent publication US20050037382A1, “Methods and compositions for treating and preventing autoimmune disorders” (priority 2003, published 2005)

Tested on: chronic colitis induced by DSS treatment
Assay: Apyrase administration in DSS-induced chronic colitis (weight)
Assay type: in vivo, mice
Details: apyrase 0.4 units/g weight at week five
Description: Adult mice (55-75 day old) sex-matched hemizygous CD39+/−, CD39−/−, and CD39+/+ littermates were given 3-5% (w/v) DSS in drinking water for seven days to induce a pathological state reminiscent of acute ulcerative colitis. Mice were fasted on day 7, and sacrificed the next day. Tissue was collected for Haematoxylin and Eosin staining, immunohistochemistry staining (for CD39, CD39L1, P-selectin, Fibrin, and P2Y1, for example), Western blot analysis, and NTPDase activity. To induce chronic ulcerative colitis, mice were treated with 3% DSS for seven days followed by a one week rest period. DSS treatment was resumed for seven days followed by another rest period of seven days. Treatment was resumed in the fifth week for seven days. At least six age- and sex-matched hemizygous CD39+/−, CD39−/−, and CD39+/+ mice were studied at the end of seven days of DSS treatment (acute colitis) or 5 week DSS treatment (chronic colitis). Mice were housed in standard cages and were allowed to drink and feed ad libitum. Animals were weighed daily. To test the hypothesis that the administration of an NTPDase can delay the damage caused by colitis, CD39+/+ and CD39+/− mice, following the induction of chronic colitis by DSS treatment, were administered with apyrase, an NTPDase (see FIGS. 4A and 4B). Apyrase was administered at 0.4 units/g weight at week five following the initial treatment with DSS.

apyrase
weight following apyrase treatment (CD39+/+ mice): significant gain in weight | weight following apyrase treatment (CD39−/+ (hemizygous) mice, compared with effect in CD39+/+ mice): further enhanced
